Measurements published in patent publication US8222218B2, “Cyclopropanated carbohydrates” (Seton Hall University, priority 2008, dated 2012).
Where two headings read alike, the source gives them in different places.

What was measured:
Assay type in all cases: in vivo
[1] = test system: metrazole-induced clonic seizures; experiment: Subcutaneous Metrazole Seizure Threshold Test (scMET), mice; settings: Mus musculus, sc
Protocol: The subcutaneous injection of metrazole, which is a convulsant, produces clonic seizures in laboratory animals. The scMET test is designed to identify compounds that raise the seizure threshold of an animal. Mice are pretreated with test compound at 30, 100, and 300 mg/kg doses in a similar manner to the MES test. Rats are treated with a 50 mg/kg dose (p.o.). At the previously determined TPE of the test compound, the dose of metrazole that will induce convulsions in 97% of animals (CD97: 85 mg/kg mice) is injected into the loose fold of the skin in the midline of the neck. The animals are placed in isolation cages to minimize stress and observed for the next 30 minutes for the presence or absence of seizures. An episode of clonic spasms (approximately 3-5 seconds) of the fore and/or hindlimbs, jaws or vibrissae is taken as the endpoint.
(§1) Male and female albino CF1 mice (18-25 g, Charles River, Portage, Mich.) and male albino Sprague-Dawley rats (275-300 g, kindling test; 100-150 g all other tests; Charles River, Raleigh, N.C.) were used as experimental animals.

[2] = test system: MES-induced seizures; experiment: Maximal Electroshock Seizure (MES) test, mice; settings: Mus musculus, ip
Description: The MES test is a model for generalized tonic-clonic seizures. The seizures are highly reproducible and electrophysiologically consistent with human seizures. The test provides information about a compound's ability to prevent the spread of seizure when all neuronal circuits of the brain are maximally active. 60 Hz of alternating current (50 mA in mice, 150 mA in rats) is applied for 2 seconds via corneal electrodes that have been treated with an electrolyte solution containing an anesthetic (0.5% tetracaine HCl). Mice are tested at a variety of intervals after an i.p. injection of […] solution of the test compound (commonly in a 0.5% solution of methylcellulose) at 30, 100, and 300 mg/kg doses. Rats are examined after a 30 mg/kg (per os, p.o.) dose that is applied in a volume of 0.04 mL/g. An animal is considered “protected” from MES-induced seizures upon removal of the hind limb extensor component of the seizure.
as §1

[3] = Acute toxicity, minimal motor impairment (rotorod), mice; settings: mice, rotorod; for TOX 30 0.5 h (animals toxic/tested) / TOX 30 4 h (animals toxic/tested): 30 mg/kg; for TOX 100 0.5 h (animals toxic/tested) / TOX 100 4 h (animals toxic/tested): 100 mg/kg; for TOX 300 0.5 h (animals toxic/tested) / TOX 300 4 h (animals toxic/tested): 300 mg/kg
Protocol: Toxicity was measured using the minimal motor impairment test described below.
Animals are monitored for overt signs of impaired neurological or muscular function to assess a compound's toxicity. In mice, the rotorod procedure is used to disclose minimal muscular or neurological impairment. When a mouse is placed on a rotating rod (6 rpm), the animal can maintain its equilibrium for long periods of time. The animal is considered toxic if it falls off the rotating rod three times during a 1 minute period. In rats, minimal motor deficit is indicated by ataxia, which is manifested by an abnormal, uncoordinated gait.

[4] = mice, 30 mg/kg, 0.4 h, read-out: scMET 30 0.4 h (animals protected/tested)
[5] = mice, 30 mg/kg, 0.5 h, read-out: scMET 30 0.5 h (animals protected/tested)
[6] = mice, 100 mg/kg, 0.4 h, read-out: scMET 100 0.4 h (animals protected/tested)
[7] = mice, 100 mg/kg, 0.5 h, read-out: scMET 100 0.5 h (animals protected/tested)
[8] = mice, 300 mg/kg, 0.4 h, read-out: scMET 300 0.4 h (animals protected/tested)
[9] = mice, 300 mg/kg, 0.5 h, read-out: scMET 300 0.5 h (animals protected/tested)
[10] = mice, i.p., 30 mg/kg, 0.5 h, read-out: MES 30 0.5 h (animals protected/tested)
[11] = mice, i.p., 30 mg/kg, 4 h, read-out: MES 30 4 h (animals protected/tested)
[12] = mice, i.p., 100 mg/kg, 0.5 h, read-out: MES 100 0.5 h (animals protected/tested)
[13] = mice, i.p., 100 mg/kg, 4 h, read-out: MES 100 4 h (animals protected/tested)
[14] = mice, i.p., 300 mg/kg, 0.5 h, read-out: MES 300 0.5 h (animals protected/tested)
[15] = mice, i.p., 300 mg/kg, 4 h, read-out: MES 300 4 h (animals protected/tested)

SMILES	responders at 30 mg/kg [1, 4]	responders at 30 mg/kg [1, 5]	responders at 100 mg/kg [1, 6]	responders at 100 mg/kg [1, 7]	responders at 300 mg/kg [1, 8]	responders at 300 mg/kg [1, 9]	responders at 30 mg/kg [2, 10]	responders at 30 mg/kg [2, 11]	responders at 100 mg/kg [2, 12]	responders at 100 mg/kg [2, 13]	responders at 300 mg/kg [2, 14]	responders at 300 mg/kg [2, 15]	TOX 30 0.5 h (animals toxic/tested) [3]	TOX 30 4 h (animals toxic/tested) [3]	TOX 100 0.5 h (animals toxic/tested) [3]	TOX 100 4 h (animals toxic/tested) [3]	TOX 300 0.5 h (animals toxic/tested) [3]	TOX 300 4 h (animals toxic/tested) [3]	also measured
CCOC(=O)[C@@H]1[C@H]2O[C@@H]3COC(C)(C)O[C@H]3[C@H](OC)[C@H]21 [Compound 9, Ethyl (4aR,5aS,6aS,7R,7aS)-7-methoxy-2.2-dimethylhexahydro-4H-cyclopropa[5,6]pyrano[3,2-d][1,3]dioxine-6-carboxylate]	0%	0%	0%	0%	0%	0%	0%	0%	0%	0%	0%	0%	0/4	0/2	0/8	0/4	0/4	0/2	
CCOC(=O)C1[C@@H]2[C@@H](O)[C@@H]3OC(C)(C)OC[C@H]3O[C@H]12 (stereo partly drawn) [Compound 6a, Ethyl (4aR,5aS,6aR,7R,7aS)-7-hydroxy-2,2-dimethylhexahydro-4H-cyclopropa[5,6]pyrano[3,2-d][1,3]dioxine-6-carboxylate]	0%	0%	0%	0%	0%	0%	0%	0%	0%	0%	0%	0%	0/4	0/2	0/8	0/4	0/4	0/2	
COC(=O)C1[C@@H]2[C@@H](O)[C@@H]3OC(C)(C)OC[C@H]3O[C@H]12 (stereo partly drawn) [Compound 10, Methyl (4aR,5aS,6aR,7R,7aS)-7-hydroxy-2,2-dimethylhexahydro-4H-cyclopropa[5,6]pyrano[3,2-d][1,3]dioxine-6-carboxylate]	0%	0%	0%	0%	0%	0%	0%	0%	0%	0%	0%	0%	0/4	0/2	0/8	0/4	0/4	0/2	
CCOC(=O)C1[C@@H]2[C@@H](OS(N)(=O)=O)[C@@H]3OC(C)(C)OC[C@H]3O[C@H]12 (stereo partly drawn) [Compound 8b, ethyl (4aR,5aS,6aS,7R,7aR)-2,2-dimethyl-7-(sulfamoyloxy)hexahydro-4H-cyclopropa[5,6]pyrano[3,2-d][1,3]dioxine-6-carboxylate]	0%	0%	0%	0%	0%	0%	0%	0%	0%	0%	0%	0%	0/4	0/2	1/8	0/4	1/4	0/2	
CCOC(=O)C1[C@@H]2[C@@H](OS(=O)(=O)N(C)C)[C@@H]3O[C@H](c4ccc(OC)cc4)OC[C@H]3O[C@H]12 (stereo partly drawn) [Compound 17a, Ethyl (2R,4aR,5aS,6aS,7R,7aR)-7-[(dimethylsulfamoyl)oxy]-2-(4-methoxyphenyl)hexahydro-4H-cyclopropa[5,6]pyrano[3,2-d][1,3]dioxine-6-carboxylate]	0%	0%	0%	0%	0%	0%	0%	0%	0%	0%	0%	0%	0/4	0/2	0/8	0/4	0/4	0/2	
CCOC(=O)[C@@H]1[C@H]2O[C@@H]3CO[Si](C(C)(C)C)(C(C)(C)C)O[C@H]3[C@H](OS(=O)(=O)N(C)C)[C@H]21 [Compound 5, (1S,1as,2R,2aR,6aR,7aS)-4,4-di-tert-butyl-2-dimethylsulfamoyloxy-hexahydro-3,5,7-trioxa-4-sila-cyclopropa[b]naphthalene-1-carboxylic acid ethyl ester]													0/4	0/2	0/8	0/4	1/4	0/2	responders at 30 mg/kg ([1]; 0.4 h, read-out: scMET 30 0.4 h (animals protected/tested)): 0%; responders at 100 mg/kg ([1]; 0.4 h, read-out: scMET 100 0.4 h (animals protected/tested)): 0%; responders at 300 mg/kg ([1]; 0.4 h, read-out: scMET 300 0.4 h (animals protected/tested)): 0%; responders at 30 mg/kg ([1]; 0.5 h, read-out: scMET 30 0.5 h (animals protected/tested)): 0%; responders at 100 mg/kg ([1]; 0.5 h, read-out: scMET 100 0.5 h (animals protected/tested)): 0%; responders at 300 mg/kg ([1]; 0.5 h, read-out: scMET 300 0.5 h (animals protected/tested)): 0%; responders at 30 mg/kg ([2]; 0.5 h, read-out: MES 30 0.5 h (animals protected/tested)): 0%; responders at 100 mg/kg ([2]; 0.5 h, read-out: MES 100 0.5 h (animals protected/tested)): 0%; responders at 300 mg/kg ([2]; 0.5 h, read-out: MES 300 0.5 h (animals protected/tested)): 0%; responders at 30 mg/kg ([2]; 4 h, read-out: MES 30 4 h (animals protected/tested)): 0%; responders at 100 mg/kg ([2]; 4 h, read-out: MES 100 4 h (animals protected/tested)): 0%; responders at 300 mg/kg ([2]; 4 h, read-out: MES 300 4 h (animals protected/tested)): 0%
